In patent US9248124B2, “Use of inhibitors of IκB kinase for the treatment of cancer” (Millennium Pharmaceuticals, Inc., priority 2001, dated 2016):

Experiments:
Type in all cases: cell-based, human
[1] = test system: MM.1S cells; assay: DNA synthesis ([3H]-TdR uptake) in MM.1S cells with Dex, IL-6, Thal or IMiD3; settings: 48 h
Protocol: (§1) Proliferation was measured as previously described (Hideshima et al., Blood 96:2943 (2000)). MM cells (3×10^4 cells/well) were incubated in 96-well culture plates (Costar, Cambridge, Mass.) in the presence of media, PS-341, compound 1 and/or Dex or recombinant human IL-6 (Genetics Institute, Cambridge, Mass.) for 48 h at 37° C. DNA synthesis was measured by [^3H]-thymidine ([^3H]-TdR, NEN Products, Boston, Mass.) uptake. Cells were pulsed with [^3H]TdR (0.5 μCi/well) during the last 8 h of 48 h cultures. All experiments were performed in triplicate.

[2] = test system: p42/44 MAPK phosphorylation; assay: Immunoblot of IL-6 induced p42/44 MAPK phosphorylation in MM.1S cells; settings: IL-6 50 ng/mL for 5 min, compound 1 10 μM 90 min, PS-341 5 μM 60 min, FIG. 5
Protocol: MM cells were cultured with PS-341 or compound 1; harvested; washed; and lysed using lysis buffer: 50 mM Tris-HCl (pH 7.4), 150 mM NaCl, 1% NP-40, 5 mM EDTA, 5 mM NaF, 2 mM Na3VO4, 1 mM PMSF, 5 μg/mL leupeptin, and 5 μg/mL aprotinin. For detection of phospho-IκBα, IκBα, phospho-MAPK, phospho-STAT3, ERK2 or alpha-tubulin, cell lysates were subjected SDS-PAGE, transferred to PVDF membrane (Bio-Rad Laboratories, Hercules, Calif.), and immunoblotted with anti-phospho-IκBα, -IκBα, -phospho-MAPK, or -phospho-STAT3 Abs (Cell Signaling, Beverly, Mass.), and anti-alpha-tubulin (Sigma) Abs.

[3] = test system: ICAM-1 expression on MM.1S and RPMI8226 cells; assay: Flow cytometry of TNFα-induced ICAM-1 expression on MM cells; settings: TNFα 5 ng/mL, compound 1 10 μM, 24 h, FIG. 10
Protocol: For cell cycle analysis, MM cells cultured for 24-48 h in compound 1 (10 μM), Dex (1 μM); IL-6 (20 ng/mL), or control media were harvested, washed with phosphate-buffered saline (PBS), fixed with 70% ethanol, and treated with 10 μg/mL of RNase (Roche Diagnostics Corp., Indianapolis, Ind.). Cells were then stained with propidium iodine (PI, Sigma) (5 μg/mL). For detection of ICAM-1 expression, MM cells cultured in TNFα (5 ng/mL) in the presence or absence of compound 1 (10 μM) were harvested, washed with PBS, and stained with mouse IgG isotype control or FITC-conjugated mouse anti-human CD54 Ab. Both cell cycle profile and ICAM-1 expression were determined using an Epics (Coulter Immunology, Hialeah, Fla.) flow cytometer, as in prior studies (Hideshima et al., Oncogene 20:4519 (2001)).

[4] = test system: NF-κB activation in MM.1S cells; assay: Electrophoretic mobility shift assay (EMSA) of NF-κB activation in MM.1S cells
Protocol: Electrophoretic mobility shift analyses (EMSA) were carried out as in previous studies (Hideshima et al., Oncogene 20:4519 (2001); Hideshima et al., Cancer Res. 61:3071 (2001)). Briefly, MM.1S cells were pre-incubated with PS-341 (5 μM for 1 h) and compound 1 (10 μM for 90 min) before stimulation with TNFα (5 ng/mL) for 10 or 20 min. Cells were then pelleted, resuspended in 400 μL of hypotonic lysis buffer (20 mM HEPES, pH 7.9, 10 mM KCl, 1 mM EDTA, 0.2% Triton X-100, 1 mM Na3VO4, 5 mM NaF, 1 mM PMSF, 5 μg/mL leupeptin, 5 μg/mL aprotinin), and kept on ice for 20 min. After centrifugation (14000 g for 5 min) at 4° C., the nuclear pellet was extracted with 100 μL hypertonic lysis buffer (20 mM HEPES, pH 7.9, 400 mM NaCl, 1 mM EDTA, 1 mM Na3VO4, 5 mM NaF, 1 mM PMSF, 5 μg/mL leupeptin, 5 μg/mL aprotinin) on ice for 20 min. After centrifugation (14000 g for 5 min) at 4° C., the supernatant was collected as nuclear extract. […]
Since NF-κB activation requires phosphorylation, ubiquitination, and degradation of IκBα, we next examined whether compound 1 could inhibit NF-κB activation, assessed by EMSA. […]

[5] = test system: MM.1S cells adherent to BMSCs; assay: Paracrine MM.1S cell growth on BMSCs ([3H]-TdR uptake); settings: 0.4-10 μM, 48 h, dose dependent; FIG. 12B
Protocol: as §1
To evaluate growth stimulation and signaling in MM cells adherent to BMSCs, 3×10^4 MM.1S cells were cultured in BMSC coated 96-well plates for 48 h, in the presence or absence of compound 1. DNA synthesis was measured as described above. The Duoset ELISA (R&D System) was used to measure IL-6 in supernatants of 48 h cultures of BMSCs with or without MM.1S cells, in the presence or absence of compound 1.

Compound: O=C(Nc1cc(Cl)cc2c1[nH]c1cnccc12)c1cccnc1 [compound 1, N-(6-chloro-9H-β-carbolin-8-yl)-nicotinamide]
- inhibitory effect of IL-6 against IMiD3 ([1]; compound 1 10 μM, IL-6 20 ng/mL, FIG. 9): neutralized
- protective effect of IL-6 on Dex-induced growth inhibition ([1]; compound 1 0.4-10 μM, Dex 0.1 μM, IL-6 50 ng/mL, FIG. 8C): abrogated
- constitutive and IL-6 induced DNA synthesis in MM.1S cells ([1]; compound 1 1.5-12.5 μM, IL-6 0.5-50 ng/mL, dose dependent, FIG. 8B): abrogated
- effect of compound 1 on Dex inhibition of proliferation ([1]; compound 1 1.5-50 μM with Dex, FIG. 8A): did not enhance
- p42/44 MAPK phosphorylation [2]: does not inhibit
- TNFα-induced upregulation of ICAM-1 expression [3]: inhibits
- NF-κB activation triggered by TNFα (EMSA), dose dependence ([4]; compound 1 2.5-10 μM for 90 min, dose-dependent fashion, FIG. 6C): inhibits
- NF-κB activation (EMSA) ([4]; pre-treated 10 μM for 90 min, TNFα 5 ng/mL for 0-20 min, FIG. 2): completely inhibited
- increased MM.1S cell growth triggered by adherence to BMSCs [5]: inhibits
